Columns and labels:
Type in all cases: in vivo
[1] = Carbonation effect of structural analogs in lime-flavored carbonated water, trained panel
Protocol: Selected structural analogs of sitosterol were tested for their ability to enhance the carbonation effect of a carbonated beverage. The analogs were used in amounts of 400 ppb and 200 ppb to 5 ppm. The sensory evaluation was carried by a trained panel that tasted each of the compounds in a lime-flavored carbonated water (Vintage seltzer water). The intensity of carbonation effect was rated and compared to other samples (Table 3)

[2] = Flavor of β-sitosterol solutions in water; conditions: solutions 2.5 to 600 ppb in water
[3] = Alcohol impression in alcohol-free beer, panel comparison with alcohol solutions; conditions: 25 ppb in Brahma 0.0% alcohol-free beer
Protocol: Alcohol solutions at 1% ABV, 2% ABV, 2.5% ABV, 3% ABV and 5% ABV were prepared by adding varying amounts of ethanol in Brahma 0.0% alcohol-free beer (Anheuser-Busch InBev);
A β-sitosterol solution (prepared in Example 1) was added in Brahma 0.0% alcohol-free beer to yield a final concentration of 25 ppb. The alcohol impression of the obtained sample was evaluated and compared by a panel with alcohol solutions at 1% ABV, 2% ABV, 2.5% ABV, 3% ABV and 5% ABV (prepared in Example 1). β-Sitosterol (25 ppb) provided an equal level of alcohol impression as the alcohol solution at 2.5% ABV. Accordingly, β-Sitosterol provided alcohol sensation in alcohol-free beverages.

[4] = Alcohol sensation intensity in alcohol solution at 6% ABV, panel, scale 0 to 10; conditions: 100 ppb in solution of 6% ABV; scale 0 to 10 (0=none, 4=medium, 7=high, 10=extremely high); control 4.38 ± 0.32
Protocol: Alcohol solution at 6% ABV was prepared by adding ethanol in water; and
A β-sitosterol solution (prepared in Example 1) was added to the alcohol solution at 6% ABV (prepared in Example 1) to yield a final concentration of 100 ppb. The alcohol sensation of the obtained sample was evaluated and compared by a panel with the alcohol solution at 6% ABV using an intensity scale of 0 to 10, where 0=none, 4=medium, 7=high and 10=extremely high. The intensity of alcohol sensation was rated. Mean (“Alcohol Intensity”) and standard error of the mean (“SE”, ±) were obtained (Table 1).

[5] = Alcohol sensation with varying amounts of β-sitosterol in alcohol solution at 17.5% ABV
Protocol: (§1) Alcohol solutions with ABV ranging from 8.75% to […] were prepared by diluting CAPTAIN MORGAN® Original Spiced Rum (35% ABV) (Diageo North America Inc.) in varying amounts of water.
A series of β-sitosterol solutions (prepared in Example 1) were added to the alcohol solution at 17.5% ABV (prepared in Example 1) to yield final concentrations of β-sitosterol ranging from 3 to 500 ppb. The alcohol sensation of the obtained samples containing different amounts of β-sitosterol was evaluated.

[6] = Alcohol sensation with varying amounts of alcohol, panel comparison with solutions at higher ABV
Protocol: as §1
A β-sitosterol solution (prepared in Example 1) was added to alcohol solutions at 8.75% ABV, 17.5% ABV and 21.75% ABV (prepared in Example 1), respectively, to yield a final concentration of 25 ppb β-sitosterol. The alcohol sensation of the obtained samples was evaluated and compared by a panel with alcohol solutions at higher levels of ABV.

[7] = Carbonation effect intensity in carbonated water (7.2 g/L CO2), panel, scale 0 to 10; conditions: 2.5 ppt in solution of 7.2 g/L CO2; scale 0 to 10 (0=none, 4=medium, 7=high, 10=extremely high); control 4.88 ± 2.53
Protocol: (§2) Carbonated water containing carbon dioxide at 6.0, 7.2 and 8.0 g/L, respectively, were also prepared.
A β-sitosterol solution (prepared in Example 1) was added to the carbonated water (7.2 g/L CO2) (prepared in Example 1) to yield a final concentration of 2.5 ppt. The carbonation effect of the obtained sample was evaluated and compared by a panel with the carbonated water using an intensity scale of 0 to 10, where 0=none, 4=medium, 7=high and 10=extremely high. The intensity of carbonation effect was rated. Mean (“Carbonation Intensity”) and standard error of the mean (“SE”, ±) were obtained (Table 2).

[8] = Carbonation sensation with varying amounts of β-sitosterol in carbonated water (7.2 g/L CO2)
Protocol: as §2
A series of β-sitosterol solutions (prepared in Example 1) were added to carbonated water (7.2 g/L CO2) (prepared in Example 1) to yield final concentrations ranging from 0.1 ppt to 50 ppt. The carbonation sensation of the obtained samples containing different amounts of β-sitosterol was evaluated.

[9] = Carbonation sensation with varying amounts of carbonation; conditions: 2.5 ppt in carbonated water containing 6.0, 7.2 or 8.0 g/L CO2, all samples
Protocol: as §2
A β-sitosterol solution (prepared in Example 1) was added to carbonated water containing 6.0, 7.2 or 8.0 g/L CO2 (prepared in Example 1), respectively, to yield a final concentration of 2.5 ppt β-sitosterol. The carbonation sensation of the obtained samples was evaluated.

[10] = 200 ppb-5 ppm in lime-flavored carbonated water (Vintage seltzer water)
[11] = 200 ppb in lime-flavored carbonated water (Vintage seltzer water)

CC(C)CCC[C@@H](C)[C@H]1CC[C@H]2[C@@H]3CC=C4C[C@@H](O)CC[C@]4(C)[C@H]3CC[C@]12C [Cholesterol]
Carbonation Effect [1, 10]: 200 ppb-5 ppm: Very similar to Deoxycholic

C=C(C)[C@@H]1CC[C@]2(CO)CC[C@]3(C)[C@H](CC[C@@H]4[C@@]5(C)CC[C@H](O)C(C)(C)[C@@H]5CC[C@]43C)[C@@H]12 [Betulin]
Carbonation Effect [1, 11]: 200 ppb: Long lasting popping, sour, works with

C[C@H](CCC(=O)NCC(=O)O)[C@H]1CC[C@H]2[C@@H]3[C@H](O)C[C@@H]4C[C@H](O)CC[C@]4(C)[C@H]3C[C@H](O)[C@]12C [Glycocholic acid hydrate]
Carbonation Effect [1, 11]: 200 ppb: Longer lasting bubbles than control,

CC[C@H](/C=C/[C@@H](C)[C@H]1CC[C@H]2[C@@H]3CC=C4C[C@@H](O)CC[C@]4(C)[C@H]3CC[C@]12C)C(C)C [Stigmasterol]
Carbonation Effect [1, 10]: 200 pb-5 ppm: 5 ppm is a good level, adds more

C[C@H](CCC(=O)O)[C@H]1CC[C@H]2[C@@H]3C[C@H](O)[C@@H]4C[C@H](O)CC[C@]4(C)[C@H]3CC[C@]12C [Hyodeoxycholic acid]
Carbonation Effect [1, 11]: 200 ppb: Very foamy, fast bubbles upfront,

CC[C@H](CC[C@@H](C)[C@H]1CC[C@H]2[C@@H]3CC=C4C[C@@H](O)CC[C@]4(C)[C@H]3CC[C@]12C)C(C)C [β-sitosterol, (3S,8S,9S,10R,13R,14S,17R)-17-((1R,4R)-4-ethyl-1,5-dimethyl-hexyl)-10,13-dimethyl-2,3,4,7,8,9,10,11,12,13,14,15,16,17-tetradecahydro-1H-cyclopenta[a]phenanthren-3-ol]
Flavor of the compound itself [2]: no noticeable flavor itself
Alcohol impression, equal level as alcohol solution at [3]: 2.5 % ABV
Mean Alcohol Intensity ± SE [4]: 7.21 ± 0.27
Alcohol sensation ([5]; 3 ppb in alcohol solution at 17.5% ABV): slight but noticeable increase in alcohol sensation
Enhancement of alcohol sensation ([5]; 200 ppb in alcohol solution at 17.5% ABV): reached a stable plateau
Alcohol sensation ([5]; higher concentrations (above 3 ppb, up to 500 ppb) in alcohol solution at 17.5% ABV): clear increase in alcohol intensity
Alcohol sensation at the level of an alcohol solution at ([6]; 25 ppb in alcohol solution at 8.75% ABV): 10 % ABV
Alcohol sensation at the level of an alcohol solution at ([6]; 25 ppb in alcohol solution at 17.5% ABV): 22.5 % ABV
Alcohol sensation at the level of an alcohol solution at ([6]; 25 ppb in alcohol solution at 21.75% ABV): 35 % ABV
Mean Carbonation Intensity ± SE [7]: 7.19 ± 1.73
Carbonation perception ([8]; 0.1 ppt in carbonated water (7.2 g/L CO2)): slight increase in carbonation perception
Carbonation perception ([8]; 2.5 ppt in carbonated water (7.2 g/L CO2)): clear increase in carbonation perception
Enhancement of carbonation effect ([8]; 5 ppt or higher in carbonated water (7.2 g/L CO2)): reached a stable plateau
Carbonation sensation [9]: provided enhancement of carbonation sensation

C[C@H](CCC(=O)NCCS(=O)(=O)[O-])[C@H]1CC[C@H]2[C@@H]3[C@@H](O)C[C@@H]4C[C@H](O)CC[C@]4(C)[C@H]3CC[C@]12C.[Na+] [Sodium tauroursodeoxycholate]
Carbonation Effect [1, 11]: 200 ppb: Very impactful, numbing, slightly more

C[C@H](CCC(=O)O)[C@H]1CC[C@H]2[C@@H]3[C@H](O)C[C@@H]4C[C@H](O)CC[C@]4(C)[C@H]3C[C@H](O)[C@]12C [Cholic acid]
Carbonation Effect [1, 11]: 200 ppb: More tingly bubbles on tongue, linger,
Carbonation Effect ([1]; 400 ppb in lime-flavored carbonated water (Vintage seltzer water)): 400 ppb: Very foamy, foam builds, lingering

C[C@H](CCC(=O)O)[C@H]1CC[C@H]2[C@@H]3[C@H](O)C[C@@H]4C[C@H](O)CC[C@]4(C)[C@H]3CC[C@]12C [Chenodeoxycholic acid]
Carbonation Effect [1, 10]: 200 ppb-5 ppm: Adds more violent upfront

C[C@@H]1CC[C@@]2(OC1)O[C@H]1C[C@H]3[C@@H]4CC=C5C[C@@H](O)CC[C@]5(C)[C@H]4CC[C@]3(C)[C@H]1[C@@H]2C [Diosgenin]
Carbonation Effect [1, 10]: 200 ppb-5 ppm: Not much effect on carbonation,

CC(C)(O)[C@@H]1CC[C@](C)([C@H]2[C@@H](O)C[C@@]3(C)[C@@H]4C[C@H](O[C@@H]5O[C@H](CO)[C@@H](O)[C@H](O)[C@H]5O)[C@H]5C(C)(C)[C@@H](O[C@@H]6OC[C@@H](O)[C@H](O)[C@H]6O)CC[C@@]56C[C@@]46CC[C@]23C)O1 [Astragaloside IV]
Carbonation Effect [1, 11]: 200 ppb: More impactful, long lasting, very

CC[C@H](CC[C@@H](C)[C@H]1CC[C@H]2[C@@H]3CC=C4C[C@@H](O[C@@H]5O[C@H](CO)[C@@H](O)[C@H](O)[C@H]5O)CC[C@]4(C)[C@H]3CC[C@]12C)C(C)C [β-Sitosterol β-D-glucoside, Daucosterol, β-Sitosterol β-D-glucoside]
Carbonation Effect [1, 10]: 200 ppb-5 ppm: Slight tingly tip of tongue,

Reference: patent US20200109163A1, “CARBONATED BEVERAGE AND METHOD FOR CARBONATION ENHANCEMENT” (INTERNATIONAL FLAVORS & FRAGRANCES INC., priority 2018, published 2020)
